Results as given in patent US12421251B2, “Cystic fibrosis transmembrane conductance regulator modulating agents” (VERTEX PHARMACEUTICALS INCORPORATED, priority 2019, dated 2025).

Target: CFTR (Homo sapiens, UniProt P13569)
Experiment: Membrane potential dye assay (FLIPR Tetra) of CFTR-mediated chloride transport in enteroid cells
Type: cell-based
Conditions: human intestinal epithelial enteroid cells, 18-24 h incubation with test compound, acute 10 μM forskolin and 300 nM Compound III; for EC50: CFTR-mediated chloride transport; for Max. Activity: chloride transport as % of triple combination positive control (% Activity)
Protocol: Base medium (ADF+++) consisted of Advanced DMEM/Ham's F12, 2 mM Glutamax, 10 mM HEPES, 1 μg/ml penicillin/streptomycin.
Intestinal enteroid maintenance medium (IEMM) consisted of ADF+++, 1×B27 supplement, 1×N2 supplement, 1.25 mM N-acetyl cysteine, 10 mM Nicotinamide, 50 ng/mL hEGF, 10 nM Gastrin, 1 μg/mL hR-spondin-1, 100 ng/mL hNoggin, TGF-b type 1 inhibitor A-83-01, 100 μg/mL Primocin, 10 μM P38 MAPK inhibitor SB202190.
Bath 1 Buffer consisted of 1 mM MgCl2, 160 mM NaCl, 4.5 mM KCl, 10 mM HEPES, 10 mM Glucose, 2 mM CaCl2.
Chloride Free Buffer consisted of 1 mM Magnesium Gluconate, 2 mM Calcium Gluconate, 4.5 mM Potassium Gluconate, 160 mM Sodium Gluconate, 10 mM HEPES, 10 mM Glucose.
Bath1 Dye Solution consisted of Bath 1 Buffer, 0.04% Pluronic F127, 20 μM Methyl Oxonol, 30 μM CaCCinh-A01, 30 μM Chicago Sky Blue.
Chloride Free Dye Solution consisted of Chloride Free Buffer, 0.04% Pluronic F127, 20 μM Methyl Oxonol, 30 μM CaCCinh-A01, 30 μM Chicago Sky Blue.
Chloride Free Dye Stimulation Solution consisted of Chloride Free Dye Solution, 10 μM forskolin, 100 μM IBMX, and 300 nM Compound III.
Human intestinal epithelial enteroid cells were obtained from the Hubrecht Institute for Developmental Biology and Stem Cell Research, Utrecht, The Netherlands and expanded in T-Flasks as previously described (Dekkers J F, Wiegerinck C L, de Jonge H R, Bronsveld I, Janssens H M, de Winter-de Groot K M, Brandsma A M, de Jong N W M, Bijvelds M J C, Scholte B J, Nieuwenhuis E E S, van den Brink S, Clevers H, van der Ent C K, Middendorp S and M Beekman J M. A functional CFTR assay using primary cystic fibrosis intestinal organoids. Nat. Med. 2013 July; 19(7):939-45.
Enteroid Cell Harvesting and Seeding
Cells were recovered in cell recovery solution, collected by centrifugation at 650 rpm for 5 min at 4° C., resuspended in TryPLE and incubated for 5 min at 37° C. Cells were then collected by centrifugation at 650 rpm for 5 min at 4° C. and resuspended in IEMM containing 10 μM ROCK inhibitor (RI). The cell suspension was passed through a 40 μm cell strainer and resuspended at 1×10^6 cells/mL in IEMM containing 10 μM RI. Cells were seeded at 5000 cells/well into multi-well plates and incubated for overnight at 37° C., 95% humidity and 5% CO2 prior to assay.
Membrane Potential Dye Assay
Enteroid cells were incubated with test compound in IEMM for 18-24 h at 37° C., 95% humidity and 5% CO2. Following compound incubations, a membrane potential dye assay was employed using a FLIPR Tetra to directly measure the potency and efficacy of the test compound on CFTR-mediated chloride transport following acute addition of 10 μM forskolin and 300 nM N-[2,4-bis(1,1-dimethylethyl)-5-hydroxyphenyl]-1,4-dihydro-4-oxoquinoline-3-carboxamide. Briefly, cells were washed 5 times in Bath 1 Buffer. Bath 1 Dye Solution was added and the cells were incubated for 25 min at ambient temperature. Following dye incubation, cells were washed 3 times in Chloride Free Dye Solution. Chloride transport was initiated by addition of Chloride Free Dye Stimulation Solution and the fluorescence signal was read for 15 min. The CFTR-mediated chloride transport for each condition was determined from the AUC of the fluorescence response to acute forskolin and 300 nM N-[2,4-bis(1,1-dimethylethyl)-5-hydroxyphenyl]-1,4-dihydro-4-oxoquinoline-3-carboxamide stimulation. Chloride transport was then expressed as a percentage of the chloride transport following treatment with 1 μM (14S)-8-[3-(2-{Dispiro[2.0.2.1]heptan-7-yl}ethoxy)-1H-pyrazol-1-yl]-12,12-dimethyl-2λ^6-thia-3,9,11,18,23-pentaazatetracyclo[17.3.1.111,14.05,10]-tetracosa-1(22),5,7,9,19(23),20-hexaene-2,2,4-trione, 3 μM ((R)-1-(2,2-difluorobenzo[d][1,3]dioxol-5-yl)-N-(1-(2,3-dihydroxypropyl)-6-fluoro-2-(1-hydroxy-2-methylpropan-2-yl)-1H-indol-5-yl)cyclopropanecarboxamide and 300 nM acute N-[2,4-bis(1,1-dimethylethyl)-5-hydroxyphenyl]-1,4-dihydro-4-oxoquinoline-3-carboxamide triple combination positive control (% Activity). […]

Sequence of CFTR (P13569 with tags, fused parts or gaps DEL508-508): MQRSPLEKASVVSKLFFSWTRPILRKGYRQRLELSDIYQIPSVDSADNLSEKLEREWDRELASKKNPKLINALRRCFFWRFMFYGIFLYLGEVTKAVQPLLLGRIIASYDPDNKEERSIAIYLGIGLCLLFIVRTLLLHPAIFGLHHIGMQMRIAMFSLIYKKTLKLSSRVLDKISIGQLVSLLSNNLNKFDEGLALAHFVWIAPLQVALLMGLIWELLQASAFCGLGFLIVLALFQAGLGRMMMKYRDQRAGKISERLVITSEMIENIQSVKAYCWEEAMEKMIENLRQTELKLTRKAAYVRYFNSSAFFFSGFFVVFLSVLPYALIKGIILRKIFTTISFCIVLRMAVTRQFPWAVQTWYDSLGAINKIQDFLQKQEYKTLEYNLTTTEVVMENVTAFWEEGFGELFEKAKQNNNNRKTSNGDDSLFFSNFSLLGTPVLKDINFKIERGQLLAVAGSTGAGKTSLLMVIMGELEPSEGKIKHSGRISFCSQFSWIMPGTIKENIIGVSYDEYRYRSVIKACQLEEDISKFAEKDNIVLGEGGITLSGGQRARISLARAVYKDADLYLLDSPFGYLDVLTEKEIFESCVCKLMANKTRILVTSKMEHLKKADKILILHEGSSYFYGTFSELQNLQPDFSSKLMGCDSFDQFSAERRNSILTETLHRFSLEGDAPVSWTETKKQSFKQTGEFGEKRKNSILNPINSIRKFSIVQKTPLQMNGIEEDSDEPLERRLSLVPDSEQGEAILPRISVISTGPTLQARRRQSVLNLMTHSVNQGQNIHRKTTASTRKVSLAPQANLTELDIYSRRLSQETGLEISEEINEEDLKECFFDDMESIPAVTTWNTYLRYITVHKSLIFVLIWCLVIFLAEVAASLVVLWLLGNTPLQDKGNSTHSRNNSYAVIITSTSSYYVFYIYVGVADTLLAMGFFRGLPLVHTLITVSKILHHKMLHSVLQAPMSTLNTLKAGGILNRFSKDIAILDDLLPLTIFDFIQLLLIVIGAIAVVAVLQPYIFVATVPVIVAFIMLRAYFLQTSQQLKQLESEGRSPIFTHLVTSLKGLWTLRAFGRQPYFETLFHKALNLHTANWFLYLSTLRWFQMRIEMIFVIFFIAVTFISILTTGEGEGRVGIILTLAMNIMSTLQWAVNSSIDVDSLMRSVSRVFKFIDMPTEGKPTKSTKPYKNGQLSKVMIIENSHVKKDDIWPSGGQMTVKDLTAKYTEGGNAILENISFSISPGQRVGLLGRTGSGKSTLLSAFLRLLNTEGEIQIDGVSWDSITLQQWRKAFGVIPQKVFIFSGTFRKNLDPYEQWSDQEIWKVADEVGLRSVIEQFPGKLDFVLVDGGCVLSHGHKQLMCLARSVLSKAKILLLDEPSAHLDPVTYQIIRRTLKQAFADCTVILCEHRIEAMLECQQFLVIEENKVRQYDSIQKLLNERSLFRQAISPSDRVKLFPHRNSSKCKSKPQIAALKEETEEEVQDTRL

## [2H]C1([2H])C([2H])([2H])C12CC(N1C(=O)c3cccc(c3)S(=O)(=O)Nc3nc(cc(-c4c(C)cccc4C)n3)OC[C@H]1CC(C)C)C2 [Compound Ia, (11R)-6-(2,6-Dimethylphenyl)-11-(2-methylpropyl)-12-[(1,1,2,2-tetradeutero)spiro[2.3]hexan-5-yl]-9-oxa-2λ^6-thia-3,5,12,19-tetraazatricyclo[12.3.1.14,8]nonadeca-1(17),4(19),5,7,14(18),15-hexaene-2,2,13-trione]
  EC50: < 1000 nM
  Max. Activity: +++ (+++ is >60%)

## [2H]C([2H])([2H])c1cccc(C([2H])([2H])[2H])c1-c1cc2nc(n1)NS(=O)(=O)c1cccc(c1)C(=O)N(C1CC3(CC3)C1)[C@H](CC(C)C)CO2 [Compound Id, (11R)-6-[2,6-di(trideutero)methylphenyl]-11-(2-methylpropyl)-12-{spiro[2.3]hexan-5-yl}-9-oxa-2λ^6-thia-3,5,12,19-tetraazatricyclo[12.3.1.14,8]nonadeca-1(17),4(19),5,7,14(18),15-hexaene-2,2,13-trione]
  EC50: < 1000 nM
  Max. Activity: +++ (+++ is >60%)

## [2H]C1(N2C(=O)c3cccc(c3)S(=O)(=O)Nc3nc(cc(-c4c(C)cccc4C)n3)OC[C@H]2CC(C)C)CC2(CC2)C1 [Compound Ic, (11R)-12-(5-Deuteriospiro[2.3]hexan-5-yl)-6-(2,6-dimethylphenyl)-11-isobutyl-2,2-dioxo-9-oxa-2-thia-3,5,12,19-tetrazatricyclo[12.3.1.14,8]nonadeca-1(18),4,6,8(19),14,16-hexaen-13-one]
  EC50: < 1000 nM
  Max. Activity: +++ (+++ is >60%)

## Cc1cccc(C)c1-c1cc2nc(n1)NS(=O)(=O)c1cccc(c1)C(=O)N(C1CC3(CC3)C1)[C@H](CC(C)C)CO2 [Compound I, (11R)-6-(2,6-dimethylphenyl)-11-(2-methylpropyl)-12-{spiro[2.3]hexan-5-yl}-9-oxa-2λ^6-thia-3,5,12,19-tetraazatricyclo[12.3.1.14,8]nonadeca-1(17),4(19),5,7,14(18),15-hexaene-2,2,13-trione]
  EC50: < 1000 nM
  Max. Activity: +++ (+++ is >60%)

## [2H]C1([2H])C2(CC2)C([2H])([2H])C1([2H])N1C(=O)c2cccc(c2)S(=O)(=O)Nc2nc(cc(-c3c(C)cccc3C)n2)OC[C@H]1CC(C)C [Compound Ib, (11R)-6-(2,6-Dimethylphenyl)-11-isobutyl-2,2-dioxo-12-(4,4,5,6,6-pentadeuteriospiro[2.3]hexan-5-yl)-9-oxa-2-thia-3,5,12,19-tetrazatricyclo[12.3.1.14,8]nonadeca-1(18),4,6,8(19),14,16-hexaen-13-one]
  EC50: < 1000 nM
  Max. Activity: +++ (+++ is >60%)
